Test results taken from the NIST ThermoML archive (doi:10.1021/je800110r).

Conditions: 293.15 K, Liquid, Vibrating tube method

CCCCCCCCCC [decane]
Conditions | mass density [kg/m3]
22074 kPa | 745.5
22091 kPa | 745.6
22110 kPa | 745.5
22128 kPa | 745.6
22143 kPa | 745.7
22164 kPa | 745.5
22179 kPa | 745.6
22199 kPa | 745.6
22217 kPa | 745.7
22235 kPa | 745.7
22253 kPa | 745.5
22275 kPa | 745.8
22300 kPa | 745.7
22318 kPa | 745.7
22336 kPa | 745.7
22358 kPa | 745.8
22373 kPa | 745.8
22397 kPa | 745.8
22412 kPa | 745.8
22434 kPa | 745.7
22452 kPa | 745.7
22473 kPa | 745.8
22498 kPa | 745.9
22523 kPa | 745.9
22542 kPa | 745.8
22564 kPa | 746
22583 kPa | 745.9
22605 kPa | 745.9
22624 kPa | 745.9
22648 kPa | 745.8
22667 kPa | 745.9
22689 kPa | 746
22711 kPa | 745.9
22727 kPa | 746
22746 kPa | 746
22771 kPa | 746
22787 kPa | 746
22807 kPa | 746
22830 kPa | 746.1
22852 kPa | 746.1
22866 kPa | 746
22882 kPa | 746.2
22899 kPa | 746.2
22915 kPa | 746.2
22934 kPa | 746.2
22948 kPa | 746.2
22970 kPa | 746.2
22994 kPa | 746.1
23011 kPa | 746.2
23030 kPa | 746.2
23047 kPa | 746.1
23069 kPa | 746.1
23086 kPa | 746.1
23108 kPa | 746.2
23127 kPa | 746.3
23144 kPa | 746.2
23167 kPa | 746.2
23186 kPa | 746.2
23206 kPa | 746.4
23223 kPa | 746.3
23246 kPa | 746.3
23265 kPa | 746.4
23285 kPa | 746.4
23308 kPa | 746.2
23328 kPa | 746.4
23345 kPa | 746.3
23362 kPa | 746.3
23382 kPa | 746.3
23402 kPa | 746.3
23416 kPa | 746.3
23434 kPa | 746.3
23454 kPa | 746.4
23472 kPa | 746.4
23489 kPa | 746.5
23509 kPa | 746.5
23529 kPa | 746.5
23547 kPa | 746.5
23565 kPa | 746.5
23582 kPa | 746.5
23605 kPa | 746.6
23632 kPa | 746.7
23647 kPa | 746.6
23668 kPa | 746.5
23687 kPa | 746.7
23704 kPa | 746.6
23728 kPa | 746.7
23755 kPa | 746.6
23773 kPa | 746.6
23790 kPa | 746.7
23811 kPa | 746.7
23826 kPa | 746.6
23847 kPa | 746.7
23875 kPa | 746.7
23896 kPa | 746.8
23917 kPa | 746.8
23940 kPa | 746.7
23964 kPa | 746.9
23985 kPa | 746.9
24004 kPa | 746.7
24022 kPa | 747
24046 kPa | 746.8
24065 kPa | 746.8
24089 kPa | 746.8
24108 kPa | 746.9
24126 kPa | 746.9
24148 kPa | 746.9
24170 kPa | 746.9
24194 kPa | 746.9
24219 kPa | 747
24237 kPa | 747
24256 kPa | 746.9
24284 kPa | 747
24309 kPa | 747
24334 kPa | 747
24356 kPa | 747.1
24374 kPa | 747
24393 kPa | 747
24416 kPa | 747
24435 kPa | 747.1
24454 kPa | 747.1
24479 kPa | 747.1
24498 kPa | 747.1
24526 kPa | 747.1
24545 kPa | 747.1
24574 kPa | 747.2
24590 kPa | 747.2
24613 kPa | 747.1
24632 kPa | 747.2
24655 kPa | 747.3
24678 kPa | 747.2
24700 kPa | 747.2
24720 kPa | 747.2
24739 kPa | 747.2
24759 kPa | 747.4
24779 kPa | 747.4
24808 kPa | 747.3
24834 kPa | 747.2
24857 kPa | 747.4
24883 kPa | 747.4
24899 kPa | 747.3
24926 kPa | 747.4
24943 kPa | 747.5
24972 kPa | 747.3
24999 kPa | 747.4
25019 kPa | 747.5
25048 kPa | 747.5
25068 kPa | 747.5
25092 kPa | 747.5
25116 kPa | 747.5
25139 kPa | 747.5
25163 kPa | 747.5
25187 kPa | 747.6
25218 kPa | 747.7
25238 kPa | 747.6
25269 kPa | 747.5
25300 kPa | 747.7
25320 kPa | 747.7
25345 kPa | 747.6
25370 kPa | 747.6
25391 kPa | 747.7
25419 kPa | 747.6
25442 kPa | 747.7
25468 kPa | 747.8
25493 kPa | 747.7
25512 kPa | 747.6
25535 kPa | 747.8
25557 kPa | 747.8
25577 kPa | 747.8
25599 kPa | 747.7
25615 kPa | 747.7
25638 kPa | 747.9
25657 kPa | 747.8
25680 kPa | 747.8
25699 kPa | 747.8
25720 kPa | 748
25746 kPa | 747.9
25766 kPa | 747.9
25788 kPa | 747.9
25808 kPa | 747.9
25835 kPa | 748
25861 kPa | 748
25887 kPa | 748
25907 kPa | 748.1
25933 kPa | 747.9
25959 kPa | 748
25986 kPa | 748
26006 kPa | 748.1
26023 kPa | 748
26040 kPa | 748.1
26070 kPa | 748.1
26093 kPa | 748.1
26117 kPa | 748.1
26145 kPa | 748.1
26165 kPa | 748.2
26192 kPa | 748.1
26216 kPa | 748.1
26243 kPa | 748.1
26263 kPa | 748.4
26291 kPa | 748.2
26315 kPa | 748.2
26335 kPa | 748.3
26352 kPa | 748.3
26370 kPa | 748.3
26390 kPa | 748.4
26408 kPa | 748.3
26432 kPa | 748.3
26453 kPa | 748.3
26483 kPa | 748.4
26516 kPa | 748.4
26537 kPa | 748.4
26568 kPa | 748.4
26586 kPa | 748.5
26607 kPa | 748.4
26631 kPa | 748.5
26652 kPa | 748.5
26677 kPa | 748.4
26694 kPa | 748.5
26719 kPa | 748.4
26741 kPa | 748.5
26769 kPa | 748.5
26795 kPa | 748.5
26816 kPa | 748.5
26841 kPa | 748.6
26863 kPa | 748.5
26885 kPa | 748.6
26913 kPa | 748.7
26935 kPa | 748.7
26964 kPa | 748.7
26989 kPa | 748.6
27011 kPa | 748.7
27036 kPa | 748.7
27054 kPa | 748.6
27077 kPa | 748.7
27103 kPa | 748.7
27128 kPa | 748.8
27154 kPa | 748.7
27173 kPa | 748.7
27202 kPa | 748.8
27232 kPa | 748.8
27257 kPa | 748.8
27280 kPa | 748.8
27309 kPa | 748.8
27328 kPa | 748.8
27362 kPa | 749
27385 kPa | 748.9
27419 kPa | 748.9
27438 kPa | 749
27475 kPa | 749
27501 kPa | 749
27523 kPa | 749
27557 kPa | 749.1
27579 kPa | 749.1
27609 kPa | 749.1
27632 kPa | 749.1
27667 kPa | 749.1
27690 kPa | 749.2
27713 kPa | 749.1
27748 kPa | 749.3
27770 kPa | 749.1
27805 kPa | 749.2
27827 kPa | 749.1
27850 kPa | 749.2
27877 kPa | 749.2
27896 kPa | 749.1
27924 kPa | 749.3
27959 kPa | 749.2
27983 kPa | 749.3
28006 kPa | 749.4
28033 kPa | 749.3
28056 kPa | 749.4
28076 kPa | 749.4
28099 kPa | 749.3
28123 kPa | 749.3
